Measured values: ChEMBL document CHEMBL3045494, “Inhibitory effect and structureactivity relationship of some Biginelli-type pyrimidines against HSV-1” (Med Chem Res, 2013)
pIC50: −log10 of the molar value. The source made the active and inactive calls.

Assays:
[1] = system: Vero; assay: (§1) Cytotoxicity against Chlorocebus aethiops (African green monkey) Vero cells after 72 hr by XTT assay; format: cell-based; settings: chlorocebus sabaeus, vero, 72 h
[2] = Therapeutic index, ratio of CC50 for African green monkey Vero cells to IC50 for Herpes simplex virus 1 KOS; format: cell-based; settings: read-out: Ratio CC50/IC50
[3] = system: Human alphaherpesvirus 1; assay: Antiviral activity against Human herpesvirus 1 strain KOS infected Vero cells after 72 hr by plaque reduction assay; format: functional, organism-based; settings: for pIC50: read-out: IC50; for IC50: vero
[4] = Selectivity index, ratio of CC25 for African green monkey Vero cells to IC25 for Herpes simplex virus 1 KOS; format: toxicity, cell-based; settings: read-out: Selectivity Index
[5] = as §1; format: cell-based; settings: chlorocebus sabaeus, Vero cells
[6] = Human alphaherpesvirus 1, KOS, Vero, 72 h

Compound | CC25 [1] | CC50 [1] | selectivity ratio [2] | IC25 [3, 6] | pIC50 [3, 6] | selectivity ratio [4] | CC50 at 72 h [5] | IC50 [3] | IC25 [3]
CC1=C(C(=O)Nc2ccccc2Cl)C(c2ccccc2Cl)NC(=O)N1 (stereo not given) | Non-toxic | Non-toxic | > 1.4 | 0.1 µM | 4.17 | > 1000 |  |  | 
CC1=C(C(=O)Nc2ccccc2Cl)C(c2ccccc2Br)NC(=O)N1 (stereo not given) | 58.8 µM |  | > 1.6 | 13.9 µM | 4.22 | 4.2 | > 100 µM |  | 
CCOC(=O)C1=C(C)NC(=O)NC1c1ccc(Br)cc1 (stereo not given) | 67.5 µM |  |  |  |  |  |  |  | 
CCOC(=O)C1=C(C)NC(=O)NC1c1ccccc1 (stereo not given) | Non-toxic | Non-toxic | 1 | 133 µM |  | > 1 |  | Not Active | 
CC1=C(C(=O)NC2CCCCC2)C(c2ccccc2)NC(=O)N1 (stereo not given) | 7.6 µM |  | > 1 | 0.2 µM | < 4.00 | 38 | > 100 µM |  | 
CC1=C(C(=O)Nc2ccccc2Cl)C(C(C)c2ccccc2)NC(=O)N1 (stereo not given) | 1.7 µM |  | < 1 | 21.3 µM | < 4.00 | 0.07 | 91.5 µM |  | 
CC1=C(C(=O)Nc2cccc(Cl)c2)C(c2cnc(CS)n2NCc2ccccc2)NC(=O)N1 (stereo not given) | 100 µM |  | > 1.4 | 53.8 µM | 4.17 | 1.8 | > 100 µM |  | 
CC1=C(C(=O)Nc2ccccc2Cl)C(c2ccc(Br)cc2)NC(=O)N1 (stereo not given) | 84.3 µM |  | > 3 | 0.09 µM | 4.49 | 936 | > 100 µM |  | 
CCCOC(=O)C1=C(C)NC(=S)NC1c1cccs1 (stereo not given) | 0.5 µM |  | 2.9 | 1.5 µM | 5.10 | 0.3 | 23.6 µM |  | 
COc1ccc(C2NC(=O)NC(C)=C2C(=O)Nc2ccccc2Cl)cc1 (stereo not given) | 17.6 µM |  | > 1.5 | 0.7 µM | 4.20 | 25.1 | > 100 µM |  | 
CCCC1NC(=O)NC(C)=C1C(=O)OCC (stereo not given) | Non-toxic | Non-toxic | 1 |  |  | 1 |  | Not Active | inactive
CC1=C(C(=O)OC(C)(C)C)C(c2cccs2)NC(=O)N1 (stereo not given) | 76.7 µM |  | < 1 |  |  | < 1 | > 100 µM | Not Active | inactive
CC1=C(C(=O)Oc2ccccc2)C(c2ccccc2)NC(=O)N1 (stereo not given) | 98 µM |  | > 1.1 | 10.4 µM | 4.05 | 9.4 | > 100 µM |  | 
CCOC(=O)C1=C(C)N(C)C(=O)NC1c1ccc(F)cc1 (stereo not given) | Non-toxic | Non-toxic | 1 | 99 µM |  | > 1 |  | Not Active | 
COC(=O)C1=C(C)NC(=S)NC1c1ccc(Br)cc1 (stereo not given) | 69.1 µM |  | 1.22 | 67.7 µM | 4.08 | 0.8 | 97.2 µM |  | 
CC1=C(C(=O)OC(C)C)C(c2cccs2)NC(S)=N1 (stereo not given) | 5.7 µM |  | 1.9 | 8.5 µM | 4.55 | 0.6 | 53.9 µM |  | 

Compound | CC25 [1] | CC50 [1] | selectivity ratio [2] | IC25 [3, 6] | pIC50 [3, 6] | selectivity ratio [4] | CC50 at 72 h [5] | IC50 [3] | IC25 [3]
CC1=C(C(=O)Nc2ccccc2Cl)C(c2ccc(C)cc2)NC(=O)N1 (stereo not given) | > 100 µM |  | > 10 | 0.08 µM | 4.98 | > 1250 | > 100 µM |  | 
CC1=C(C(=O)Nc2ccccc2Cl)C(c2ccc(Cl)cc2)NC(=O)N1 (stereo not given) | Non-toxic | Non-toxic | > 6.6 | 0.16 µM | 4.89 | > 625 |  |  | 
CC1=C(C(=O)Nc2ccccc2Cl)C(c2cccc(Br)c2)NC(=O)N1 (stereo not given) | 54.7 µM |  | > 1 | 1.6 µM | 4.02 | 34.1 | > 100 µM |  | 
CCOC(=O)C1=C(C)NC(=O)NC1c1ccc(F)cc1 (stereo not given) | Non-toxic | Non-toxic | 1 |  |  | 1 |  | Not Active | inactive
CCOC(=O)C1=C(C)NC(=O)NC1c1cnc(CS)n1NCc1ccccc1 (stereo not given) | Non-toxic | Non-toxic | 1 |  |  | 1 |  | Not Active | inactive
CC1=C(C(=O)Nc2ccccc2Cl)C(c2cnc(CS)n2Nc2ccccc2)NC(=O)N1 (stereo not given) | 97.7 µM |  | < 1 |  |  | < 1 | > 100 µM | Not Active | inactive
COC(=O)C1=C(C)N(C)C(=O)NC1c1ccc(F)cc1 (stereo not given) | Non-toxic | Non-toxic | 1 |  |  | 1 |  | Not Active | inactive
COc1cccc(C2NC(=O)NC(C)=C2C(=O)Nc2ccccc2Cl)c1 (stereo not given) | 45.6 µM |  | > 1 | 9.1 µM | < 4.00 | 5 | > 100 µM |  | 
CC1=C(C(=O)Nc2ccccc2Cl)C(c2ccc([N+](=O)[O-])cc2)NC(=O)N1 (stereo not given) | Non-toxic | Non-toxic | > 1.2 | 0.6 µM | 4.09 | > 167 |  |  | 
CC1=C(C(=O)Nc2cccc(Cl)c2)C(c2cnc(CS)n2Nc2ccccc2)NC(=O)N1 (stereo not given) | 71.1 µM |  | < 0.9 | 13.7 µM | < 4.00 | 5.1 | 98.6 µM |  | 
COC(=O)C1=C(C)NC(=O)NC1c1ccc(F)cc1 (stereo not given) | Non-toxic | Non-toxic | 1 |  |  | 1 |  | Not Active | inactive
CC1=C(C(=O)Oc2ccccc2)C(c2ccccc2)NC(=S)N1 (stereo not given) | Non-toxic | Non-toxic | > 1 | 93.2 µM | < 4.00 | > 1.1 |  |  | 
COC(=O)C1=C(C)NC(=S)NC1c1cccs1 (stereo not given) | Non-toxic | Non-toxic | > 1 | 92.5 µM | < 4.00 | > 1.1 |  |  | 
CCOC(=O)C1=C(C)N=C(S)NC1c1cccs1 (stereo not given) | 87.3 µM |  |  | 14 µM | < 4.00 | 6.2 | 100 µM |  | 
CC1=C(C(=O)Nc2ccccc2Cl)C(c2cccc([N+](=O)[O-])c2)NC(=O)N1 (stereo not given) | Non-toxic | Non-toxic | > 2.1 | 0.1 µM | 4.34 | > 1000 |  |  | 
